The results in this text go back to patent publication US6530985B1, “Water-based magenta ink composition and method of ink-jet recording” (Nippon Kayaku Kabushiki Kaisha, priority 1998, dated 2003).

The term solubility denotes the dissolved amount per volume that the medium holds. A high value points to a readily soluble substance.

The nature of the series: Solubility of the dye in water. It is filed as physicochemical. From the text:
Further, the dye component used in the Example, which has a solubility in water of 100 g/L, is excellent for ink-jet recording and can produce a high concentration of ink composition.

Values after ≈ are worked out from the molar mass of the structure shown.

As for `CCC(C)(C)c1ccc(Oc2cc(Nc3ccc(S(=O)(=O)O)cc3)c3c4c(c(C(=O)c5ccccc5)c(=O)[nH]c24)-c2ccccc2C3=O)c(S(=O)(=O)O)c1`, the “solubility in pure water (ion exchanged water)” value (25° C., listed as the dye component used in the Example) is 100 mg/mL (≈ 131 mM). Further, the solubility (pure water (ion exchanged water), 25 °C, water) is roughly 100 mg/mL (≈ 131 mM).
